Laboratory results reported in patent US20260274891A1, “¿ OPIOID RECEPTOR AGONIST AND USE THEREOF” (CHENGDU AODA BIOTECHNOLOGY CO., LTD., priority 2023, published 2026).
Read-outs that look alike come from different tables or passages of the source. Square brackets hold non-standard residues; d marks the D form. Peptide text beside a SMILES is read from it. * marks the point of attachment. Piperidin1yl(4-NH2,4-COOH) = NC1(C(=O)O)CCN(*)CC1; Piperidinyl(4-NH2,4-CONH2) = NC(=O)C1(N)CCN(*)CC1; dAla(cPr) = N[C@H](CC1CC1)C(=O)O; Trifluoroethyl = FC(F)(F)C*

Target: T1, human κ opioid receptor (OPRK1) (Homo sapiens, UniProt P41145)
T1 construct: expressed in transfected cells; host or cells: CHO-K1
T1 sequence (P41145 whole entry): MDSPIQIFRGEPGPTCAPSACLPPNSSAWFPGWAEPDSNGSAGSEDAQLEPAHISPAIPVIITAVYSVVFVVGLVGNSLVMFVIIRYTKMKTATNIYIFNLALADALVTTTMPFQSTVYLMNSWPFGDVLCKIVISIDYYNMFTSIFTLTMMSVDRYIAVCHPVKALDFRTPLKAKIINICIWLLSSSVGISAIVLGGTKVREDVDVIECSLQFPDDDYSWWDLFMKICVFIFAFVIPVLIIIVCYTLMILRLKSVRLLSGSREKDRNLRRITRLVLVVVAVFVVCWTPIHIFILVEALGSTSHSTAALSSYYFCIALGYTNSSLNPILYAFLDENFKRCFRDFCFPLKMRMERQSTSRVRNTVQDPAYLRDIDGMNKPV
Experiment: Determination of activities of κ receptor agonists: inhibition of forskolin-stimulated cAMP release (HTRF) in stably transfected CHO-K1 cells
Assay type: cell-based
Conditions: for Relative Activity %: relative to Difelikefalin = 100.0
In short: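 Stably transfected CHO-K1 cells stimulated with graded agonist concentrations in presence of forskolin (concentration not specified). Inhibition of forskolin-stimulated cAMP read by HTRF as relative light units; EC50 calculated from dose-response.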

[1] = CHO-K1 cell line stably expressing opioid receptors, forskolin-stimulated cAMP, HTRF, read-out: EC50

Compound | EC50 [1] [nM] | Relative Activity % [%] | EC50 [nM]
CCOc1ccc(C[C@@H](NC(=O)[C@H](N)Cc2ccccc2)C(=O)N[C@H](CC2CC2)C(=O)N[C@H](CCCCN)C(=O)N2CCC(N)(C(=O)O)CC2)cc1 [Compound 68, D-Phe-D-Tyr(Et)-D-cyclopropylalanine-D-Lys-4-aminopiperidine-4-carboxamide-OH] (H-[dF][dY](Et)[dAla(cPr)][dK]-{Piperidin1yl(4-NH2,4-COOH)}; N-terminus assumed) | 0.126 | 483.4 | –
CCc1ccc(C[C@@H](NC(=O)[C@H](N)Cc2ccccc2)C(=O)N[C@H](CC(C)C)C(=O)N[C@H](CCCCN)C(=O)N2CCC(N)(C(=O)N[C@H](CCCCN)C(N)=O)CC2)cc1 [Compound 133, D-Phe-D-Phe(4-Et)-D-Leu-D-Lys-4-aminopiperidine-4-carboxamide-D-Lys-NH2] | – | 461.7 | 0.132
CCOc1ccc(C[C@@H](NC(=O)[C@H](N)Cc2ccccc2)C(=O)N[C@H](CC2CC2)C(=O)N[C@H](CCCCN)C(=O)N2CCC(N)(C(N)=O)CC2)cc1 [Compound 67, D-Phe-D-Tyr(Et)-D-cyclopropylalanine-D-Lys-4-aminopiperidine-4-carboxamide-NH2] (H-[dF][dY](Et)[dAla(cPr)][dK]-{Piperidinyl(4-NH2,4-CONH2)}; N-terminus assumed) | 0.127 | 477.7 | –
CC(C)C[C@@H](NC(=O)[C@@H](Cc1ccc(OCC(F)(F)F)cc1)NC(=O)[C@H](N)Cc1ccccc1)C(=O)N[C@H](CCCCN)C(=O)N1CCC(N)(C(N)=O)CC1 [Compound 91, D-Phe-D-Tyr(CH2CF3)-D-Leu-D-Lys-4-aminopiperidine-4-carboxamide-NH2] (H-[dF][dY](Trifluoroethyl)[dL][dK]-{Piperidinyl(4-NH2,4-CONH2)}; N-terminus assumed) | – | 550.0 | 0.11
